The assay has as its target T1, human recombinant glucocorticoids receptor (GR) (Homo sapiens, UniProt P04150).
T1 sequence (P04150 1-777): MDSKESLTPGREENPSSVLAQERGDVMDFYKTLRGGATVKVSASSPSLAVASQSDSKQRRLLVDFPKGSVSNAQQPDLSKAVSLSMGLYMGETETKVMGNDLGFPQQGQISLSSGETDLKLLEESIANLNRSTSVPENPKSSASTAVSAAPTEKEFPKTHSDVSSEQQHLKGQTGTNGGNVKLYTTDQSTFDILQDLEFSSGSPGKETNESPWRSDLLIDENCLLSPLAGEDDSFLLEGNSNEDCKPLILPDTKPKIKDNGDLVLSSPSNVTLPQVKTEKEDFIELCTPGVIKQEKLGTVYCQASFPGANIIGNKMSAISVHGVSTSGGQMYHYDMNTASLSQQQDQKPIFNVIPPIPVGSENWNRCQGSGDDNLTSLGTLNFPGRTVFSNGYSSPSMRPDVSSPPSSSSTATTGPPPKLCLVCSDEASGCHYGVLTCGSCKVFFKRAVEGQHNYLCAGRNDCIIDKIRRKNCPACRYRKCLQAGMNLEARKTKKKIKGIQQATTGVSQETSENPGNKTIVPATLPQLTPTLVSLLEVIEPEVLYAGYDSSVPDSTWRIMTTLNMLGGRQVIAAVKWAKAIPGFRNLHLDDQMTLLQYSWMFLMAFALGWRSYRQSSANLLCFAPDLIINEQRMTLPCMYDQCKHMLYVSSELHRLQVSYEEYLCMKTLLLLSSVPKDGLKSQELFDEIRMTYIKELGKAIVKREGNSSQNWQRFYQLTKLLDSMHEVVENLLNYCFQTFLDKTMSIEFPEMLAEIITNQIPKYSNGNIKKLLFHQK
In words: Radioactive ligand binding test, GR cytosol, [3H]-Dex. As to the method: Radioactive Ligand Binding Test Using Cytosols of Human Glucocorticoids Receptor, Progesterone Receptor and Mineralocorticoid Receptor
Opthalmol. Vis. […] In brief, cytosol preparations of human recombinant glucocorticoids receptor (GR) and human recombinant progesterone receptor-B (PRB) were purchased from Invitrogen (Carlsbad, Calif.), and a cytosol preparation of human recombinant mineralocorticoid receptor (MR) was prepared by our company (Yokohama, JP). MR cDNA was cloned into a baculovirus expression vector and expressed in insect cell Sf9. […] [^3H]-Dexamethasone (Dex, specific activity 91.0 Ci/mmol) was purchased from GE Healthcare (Buckinghamshire, UK), and [^3H]-progesterone (Prog, specific activity 103 Ci/mmol) and [3H]-aldosterone (Ald, specific activity 87.9 Ci/mmol) were each purchased from PerkinElmer (Boston, Mass.). Polypropylene round-bottomed 96 well plate was obtained from ABgene (Epsom, UK). Dimethyl Sulfoxide (DMSO) and hydrochloric acid were obtained from Kanto Chemical (TOKYO, JP). Trizma Base (Tris), Bovine Serum Albumin (BSA) and Sodium tungstate dihydrate were obtained from Sigma Chemicals (St. Louis, Mo.). Dithiothreitol (DTT) and Dextran 70 were obtained from GE Healthcare (Buckinghamshire, UK). Glycerol was obtained from Junsei Chemical (TOKYO, JP). Norit® “SX-II” was obtained from Wako Pure Chemical Industries, Ltd. (Osaka, JP). MeltiLex™, A, Printed Filtermat A and Sample Bag were obtained from PerkinElmer (Boston, Mass.).
As a buffer for GR binding assay, 25 mM Tris-HCl (4° C., pH 7.4)/1 mM EDTA·2Na/1 mM DTT/0.1% BSA was prepared and used. As buffers for PRB and MR binding assay, 10 mM Tris-HCl (4° C., pH 7.4)/1 mM DTT/0.1% BSA/10% glycerol and 20 mM Tris-HCl (4° C., pH 7.4)/1 mM EDTA·2Na/10% glycerol/20 mM sodium tungstate were respectively prepared and used.
Compound storage solutions (5-20 mM) were prepared using DMSO. The storage solutions were diluted with DMSO to 0.1 mM (for GR) and 0.3 mM (for PRB and MR), and further diluted 20-fold with distilled water to give solutions. Then, the preparations were diluted to each concentration with 5% DMSO solution. 1% DMSO was present at the time of the binding assay.
GR, PRB and MR binding reactions were performed in 96 well plate (ABgene). In the case of GR binding assay, [^3H]-Dex (about 5 nM), GR cytosol (concentration of function receptor: about 4 pmol/mL), a test compound and a binding buffer were mixed in a total volume of 50 μL, and the mixture was stood at 4° C. for 30 min or longer. A specific binding was defined to be the difference in the [^3H]-Dex binding between the presence and the absence of 1 μM unlabeled Dex.
After the reaction, 50 μL of DCC was added to each well and blended. Thereafter, the mixture was stood at 4° C. for 10 min. The plate was applied to high-speed cooling centrifuge under the conditions of 4° C., 2000 rpm, 5 min to perform B/F separation. A given amount of the supernatant was recovered, which was spotted on Filtermat A of 96 well format (PerkinElmer) and rapidly dried at a high temperature.
Measurement of Inhibition Constant (Ki)
Ki of the test compound was determined by the following Cheng-Prusoff equation: Ki=IC50/(1+[L*]/Kd) • wherein L* is a concentration of radioactive ligand and Kd is a dissociation constant for radioactive ligand determined by saturation analysis.

Setting [1] is: [3H]-Dex about 5 nM, GR cytosol, 4° C., Cheng-Prusoff, Kd about 3.1 nM, read-out: GR (Ki: nM).

Like-named read-outs stand apart in the source and are kept apart here.

By Ki is commonly meant a measure of affinity in units of concentration, obtained from inhibition or displacement.

Regarding `Cc1noc(C)c1-c1cc2c(c3c1CCC3)NC(C)(C)C(=O)C2(C)C` [Example 2, 6-(3,5-dimethylisoxazol-4-yl)-2,2,4,4-tetramethyl-2,3,4,7,8,9-hexahydro-1H-cyclopenta[h]quinolin-3-one], the inhibition constant (Ki) under setting [1] worked out at 15 nM.
Still for that read-out and setting: as for `Cc1nnn(C)c1-c1cc2c(c3c1CCC3)NC(C)(C)C(=O)C2(C)C` [Example 4, 6-(3,5-dimethyl-3H-[1,2,3]triazol-4-yl)-2,2,4,4-tetramethyl-2,3,4,7,8,9-hexahydro-1H-cyclopenta[h]quinolin-3-one], the figure is 53 nM; as for `CC1(C)Nc2c(cc(-c3ccnc4cc[nH]c34)c3c2CCC3)C(C)(C)C1=O` [Example 13, 2,2,4,4-tetramethyl-6-(1H-pyrrolo[3,2-b]pyridin-7-yl)-2,3,4,7,8,9-hexahydro-1H-cyclopenta[h]quinolin-3-one], 54 nM.
The same measure, in the same setting: as for `CC1(C)Nc2c(cc(-c3cccc4nccn34)c3c2CCC3)C(C)(C)C1=O` [Example 14, 6-(imidazo[1,2-a]pyridin-5-yl)-2,2,4,4-tetramethyl-2,3,4,7,8,9-hexahydro-1H-cyclopenta[h]quinolin-3-one], the figure is 11 nM.
`CC1(C)Nc2c(cc(-c3cccc4nncn34)c3c2CCC3)C(C)(C)C1=O` [Example 17, 2,2,4,4-tetramethyl-6-([1,2,4]triazolo[4,3-a]pyridin-5-yl)-2,3,4,7,8,9-hexahydro-1H-cyclopenta[h]quinolin-3-one]: the Ki under setting [1] worked out at 53 nM.
Consider `CC1(C)Nc2c(cc(-c3cccc4ncccc34)c3c2CCC3)C(C)(C)C1=O` [Example 20, 2,2,4,4-tetramethyl-6-(quinolin-5-yl)-2,3,4,7,8,9-hexahydro-1H-cyclopenta[h]quinolin-3-one], for which, under setting [1], the Ki was found to be 70 nM.
In the case of `CC1(C)Nc2c(cc(-c3ccnc4ncccc34)c3c2CCC3)C(C)(C)C1=O` [Example 21, 2,2,4,4-tetramethyl-6-([1,8]naphthyridin-4-yl)-2,3,4,7,8,9-hexahydro-1H-cyclopenta[h]quinolin-3-one], the Ki under setting [1] was determined as 35 nM.
Turning to `C=C1C(C)(C)Nc2c(cc(-c3c(C)ncn3C)c3c2CCC3)C1(C)C` [Example 29, 6-(3,5-dimethyl-3H-imidazol-4-yl)-2,2,4,4-tetramethyl-3-methylene-2,3,4,7,8,9-hexahydro-1H-cyclopenta[h]quinoline], the Ki under setting [1] was determined as 58 nM.
For the compound `C=CCC1(C)C(=O)C(C)(C)Nc2c1cc(-c1ccc(O)cc1C)c1c2CCC1` (centres unmarked) [Example 50, 4-allyl-6-(4-hydroxy-2-methylphenyl)-2,2,4-trimethyl-2,3,4,7,8,9-hexahydro-1H-cyclopenta[h]quinolin-3-one], the Ki under setting [1] came to 97 nM.
With `C=CCC1(C)C(=O)C(C)(C)Nc2c1cc(-c1c(C)noc1C)c1c2CCC1` (centres unmarked) [Example 51, 4-allyl-6-(3,5-dimethylisoxazol-4-yl)-2,2,4-trimethyl-2,3,4,7,8,9-hexahydro-1H-cyclopenta[h]quinolin-3-one], the Ki under setting [1] turned out to be 17 nM.
`C=CCC1(C)C(=O)C(C)(C)Nc2c1cc(-c1cccc3nccn13)c1c2CCC1` (centres unmarked) [Example 57, 4-allyl-6-(imidazo[1,2-a]pyridin-5-yl)-2,2,4-trimethyl-2,3,4,7,8,9-hexahydro-1H-cyclopenta[h]quinolin-3-one]: the Ki under setting [1] was 14 nM.
Take `CCC1(C)C(=O)C(C)(C)Nc2c1cc(-c1cccc3nccn13)c1c2CCC1` (centres unmarked) [Example 58, 4-ethyl-6-(imidazo[1,2-s]pyridin-5-yl)-2,2,4-trimethyl-2,3,4,7,8,9-hexahydro-1H-cyclopenta[h]quinolin-3-one]: the Ki under setting [1] was 12 nM.
Same read-out and setting: the figure for `CC#CCC1(C)C(=O)C(C)(C)Nc2c1cc(-c1cccc3nccn13)c1c2CCC1` (centres unmarked) [Example 63, 4-(2-butynyl)-6-(imidazo[1,2-a]pyridin-5-yl)-2,2,4-trimethyl-2,3,4,7,8,9-hexahydro-1H-cyclopenta[h]quinolin-3-one] is 27 nM; for `Cc1noc(C)c1-c1cc2c(c3c1OCO3)NC(C)(C)C(=O)C2(C)C` [Example 69, 4-(3,5-dimethylisoxazol-4-yl)-6,6,8,8-tetramethyl-6,7,8,9-tetrahydro-[1,3]dioxolo[4,5-h]quinolin-7-one] it is 55 nM.
With `CC1(C)Nc2c(cc(-c3cccc4nccn34)c3c2OCO3)C(C)(C)C1=O` [Example 71, 4-(imidazo[1,2-a]pyridin-5-yl)-6,6,8,8-tetramethyl-6,7,8,9-tetrahydro-[1,3]dioxolo[4,5-h]quinolin-7-one], the Ki under setting [1] came out at 59 nM.
For the compound `CC1(C)Nc2c(cc(-c3cccc4ncccc34)c3c2OCO3)C(C)(C)C1=O` [Example 72, 6,6,8,8-tetramethyl-4-(quinolin-5-yl)-6,7,8,9-tetrahydro-[1,3]dioxolo[4,5-h]quinolin-7-one], the Ki under setting [1] amounted to 96 nM.
As to `C=CCC1(C)C(=O)C(C)(C)Nc2c1cc(-c1cccc3cc[nH]c13)c1c2OCO1` (centres unmarked) [Example 78, 6-allyl-4-(1H-indol-7-yl)-6,8,8-trimethyl-6,7,8,9-tetrahydro-[1,3]dioxolo[4,5-h]quinolin-7-one], the Ki came out at 80 nM.
With `CC1(C)Nc2c(cc(-c3cccc4nccn34)c3c2OC(F)(F)O3)C(C)(C)C1=O` [Example 82, 2,2-difluoro-4-(imidazo[1,2-a]pyridin-5-yl)-6,6,8,8-tetramethyl-6,7,8,9-tetrahydro-[1,3]dioxolo[4,5-h]quinolin-7-one], under setting [1], the Ki turned out to be 47 nM.
The same measure, in the same setting: as for `Cc1noc(C)c1-c1cc2c(c3c1OCC3)NC(C)(C)C(=O)C2(C)C` [Example 84, 6-(3,5-dimethylisoxazol-4-yl)-2,2,4,4-tetramethyl-1,2,3,4,8,9-hexahydro-furo[2,3-h]quinolin-3-one], the figure is 27 nM.
Regarding `CC1(C)Nc2c(cc(-c3cccc4nccn34)c3c2CCO3)C(C)(C)C1=O` [Example 88, 6-(imidazo[1,2-a]pyridin-5-yl)-2,2,4,4-tetramethyl-1,2,3,4,8,9-hexahydro-furo[2,3-h]quinolin-3-one], the Ki under setting [1] is 19 nM.
On the same count and under the same terms, as for `CC1(C)Nc2c(cc(-c3ccnc4ncccc34)c3c2CCO3)C(C)(C)C1=O` [Example 92, 2,2,4,4-tetramethyl-6-([1,8]naphthyridin-4-yl)-1,2,3,4,8,9-hexahydro-furo[2,3-h]quinolin-3-one], the figure is 64 nM.
Consider `Cc1onc(CO)c1-c1cc2c(c3ccoc13)NC(C)(C)C(=O)C2(C)C` [Example 94, 6-(3-hydroxymethyl-5-methylisoxazol-4-yl)-2,2,4,4-tetramethyl-1,2,3,4-tetrahydro-furo[2,3-h]quinolin-3-one], for which the Ki under setting [1] came to 11 nM.
On to `CC1(C)Nc2c(cc(-c3cccc4nccn34)c3occc23)C(C)(C)C1=O` [Example 98, 6-(imidazo[1,2-a]pyridin-5-yl)-2,2,4,4-tetramethyl-1,2,3,4-tetrahydro-furo[2,3-h]quinolin-3-one], for which, under setting [1], the inhibition constant Ki stood at 15 nM.

The values are drawn from US8367695B2, “Condensed tetrahydroquinoline derivative and use thereof for medical purposes” (Mitsubishi Tanabe Pharma Corporation, priority 2007, dated 2013).
